Results: patent US20080306162A1, “Treatment of Inflammatory Disorders and Pain” (priority 2005, published 2008)

Assays:
TNFα = assay: LPS mouse assay, serum TNFα by ELISA; type: in vivo, Balb C ByJ mice; settings: i.p. or oral 30 minutes before 1 mg/kg LPS i.p., serum 2 hours after LPS
Protocol: (§1) 7 week old Balb C ByJ mice (24-28 g) were administered, either by i.p. (5 ml/kg) or oral (10 ml/kg) administration, with vehicle or test article. 30 minutes later these animals were challenged with an intraperitoneal injection of 1 mg/kg LPS. 2 hours after LPS challenge blood samples were collected under light isoflurane anaesthesia into normal tubes by retro-orbital puncture. Samples were allowed to clot at room temperature and then spun at 6000 g for 3 min at 4° C. Serum was stored at −20° C. until use. Serum TNFα and IL-10 levels were analysed in duplicate by ELISA technique.

IL-10 = assay: LPS mouse assay, serum IL-10 by ELISA; type: in vivo, Balb C ByJ mice; settings: i.p. or oral 30 minutes before 1 mg/kg LPS i.p., serum 2 hours after LPS
Protocol: as §1

male Wistar rats = assay: Carrageenan paw assay; type: in vivo; settings: rat
Protocol: Fasted (18 hour) male Wistar rats (105-130 g) were weighed and a basal mercury plethysmometer reading was taken of the right hind paw by submerging the paw in the mercury up to the tibiotarsal joint. Subsequently, vehicles, reference items and test articles were administered by oral gavage (10 ml/kg). Half an hour after treatment, 0.1 ml of 2% carrageenan in 0.9% saline was injected into the subplanatar area of the right hind paw. The right paw was measured again with the plethysmometer at 1, 2, 3, 4 and 5 hours after carrageenan administration.

SMILES: CC(C)(CO)NCC(O)c1cc(Cl)c(N)c(Cl)c1 (racemic) [Example 1, 2-[2-(4-amino-3,5-dichlorophenyl)-2-hydroxyethylamino]-2-methylpropan-1-ol]
- inhibition of TNFα production (TNFα; 10 mg/kg): 60%
- inhibition of TNFα production (TNFα; 30 mg/kg): 61%
- IL-10 production potentiated (IL-10; 10 mg/kg): 417%
- IL-10 production potentiated (IL-10; 30 mg/kg): 392%

SMILES: CC(C)(CO)NCC(O)c1cc(Cl)c(N)c(Cl)c1 (single isomer, unassigned) [2-[2-(4-amino-3,5-dichlorophenyl)-2-hydroxyethylamino]-2-methylpropan-1-ol]
- inhibition in the carageenan paw assay (male Wistar rats; 0.3 mg/kg oral gavage): 18%
- inhibition in the carageenan paw assay (male Wistar rats; 1 mg/kg oral gavage): 28%
- inhibition in the carageenan paw assay (male Wistar rats; 3 mg/kg oral gavage): 26%
- inhibition in the carageenan paw assay (male Wistar rats; 10 mg/kg oral gavage): 59%
- inhibition in the carageenan paw assay (male Wistar rats; 30 mg/kg oral gavage): 71%
- anti-inflammatory dose response in the carageenan paw assay (male Wistar rats; 0.3 to 30 mg/kg oral gavage): clear anti-inflammatory dose response curve

SMILES: CC(C)(CO)NCC(O)c1ccccc1 (stereo not shown) [Example 2, 2-(2-phenyl-2-hydroxyethylamino)-2-methyl-propan-1-ol]
- inhibition of TNFα production (TNFα; 10 mg/kg): 47%
- inhibition of TNFα production (TNFα; 30 mg/kg): 58%
- IL-10 production potentiated (IL-10; 10 mg/kg): 345%
- IL-10 production potentiated (IL-10; 30 mg/kg): 366%

SMILES: CC(C)(CO)NCC(O)c1ccc(F)cc1 (stereo not shown) [Example 3, 2-[2-(4-fluorophenyl)-2-hydroxyethylamino]-2-methylpropan-1-ol]
- inhibition of TNFα production (TNFα; 10 mg/kg): 37%
- inhibition of TNFα production (TNFα; 30 mg/kg): 37%
- IL-10 production potentiated (IL-10; 10 mg/kg): 106%
- IL-10 production potentiated (IL-10; 30 mg/kg): 125%

SMILES: CC(C)Cc1ccc(C(C)C(=O)O)cc1 (stereo not shown) [Ibuprofen, reference compound]
- anti-inflammatory in the carageenan paw assay (male Wistar rats; 100 mg/kg oral gavage): 38%
